Measured values published in US10798941B2, “Microbiocidal oxadiazole derivatives” (SYNGENTA PARTICIPATIONS AG, priority 2016, dated 2020).
Where two headings read alike, the source gives them in different places.

How the values were obtained:
[1] = system: Puccinia recondita f. Sp. Tritici; experiment: Puccinia recondita f. sp. tritici / wheat / leaf disc preventative (brown rust); format: in vivo; details: foliar, 168 h, read-out: disease control
Procedure: Leaf disks or leaf segments of various plant species are cut from plants grown in a greenhouse. The cut leaf disks or segments are placed in multiwell plates (24-well format) onto water agar. The leaf disks are sprayed with a test solution before (preventative) or after (curative) inoculation. Compounds to be tested are prepared as DMSO solutions (max. 10 mg/ml) which are diluted to the appropriate concentration with 0.025% Tween20 just before spraying. The inoculated leaf disks or segments are incubated under defined conditions (temperature, relative humidity, light, etc.) according to the respective test system. A single evaluation of disease level is carried out 3 to 14 days after inoculation, depending on the pathosystem. Percent disease control relative to the untreated check leaf disks or segments is then calculated.
Wheat leaf segments cv. Kanzler were placed on agar in multiwell plates (24-well format) and sprayed with the formulated test compound diluted in water. The leaf disks were inoculated with a spore suspension of the fungus 1 day after application. The inoculated leaf segments were incubated at 19° C. and 75% relative humidity (rh) under a light regime of 12 hours light/12 hours darkness in a climate cabinet and the activity of a compound was assessed as percent disease control compared to untreated when an appropriate level of disease damage appears in untreated check leaf segments (7 to 9 days after application).
The following compounds at 200 ppm in the applied formulation give at least 80% disease control in this test when compared to untreated control leaf disks under the same conditions, which show extensive disease development.

[2] = system: Glomerella Lagenarium (Colletotrichum Lagenarium); experiment: Glomerella lagenarium (Colletotrichum lagenarium) liquid culture / cucumber / preventative (anthracnose); format: cell-based; details: Colletotrichum orbiculare, read-out: disease control
Procedure: Mycelia fragments or conidia suspensions of a fungus prepared either freshly from liquid cultures of the fungus or from cryogenic storage, are directly mixed into nutrient broth. DMSO solutions of the test compound (max. 10 mg/ml) are diluted with 0.025% Tween20 by a factor of 50 and 10 μl of this solution is pipetted into a microtiter plate (96-well format). The nutrient broth containing the fungal spores/mycelia fragments is then added to give an end concentration of the tested compound. The test plates are incubated in the dark at 24° C. and 96% relative humidity. The inhibition of fungal growth is determined photometrically after 2 to 7 days, depending on the pathosystem, and percent antifungal activity relative to the untreated check is calculated.
Conidia of the fungus from cryogenic storage are directly mixed into nutrient broth (PDB—potato dextrose broth). After placing a (DMSO) solution of test compound into a microtiter plate (96-well format), the nutrient broth containing the fungal spores is added.
The following compounds at 20 ppm in the applied formulation give at least 80% disease control in this test when compared to untreated control under the same conditions, which show extensive disease development.

[3] = 200 ppm in the applied formulation, wheat leaf segments cv. Kanzler, preventative, inoculated 1 day after application, assessed 7 to 9 days after application, vs untreated
[4] = 20 ppm in the applied formulation, liquid culture in PDB, 24° C., inhibition of growth measured photometrically 3 to 4 days after application, vs untreated

COc1cc(Cl)cnc1OCc1cn(Cc2ccc(-c3noc(C(F)(F)F)n3)cc2)nn1 [Compound 1.29, 3-[4-[[4-[(5-chloro-3-methoxy-2-pyridyl)oxymethyl]triazol-1-yl]methyl]phenyl]-5-(trifluoromethyl)-1,2,4-oxadiazole]
pest or weed control at 200 ppm [1, 3]: ≥ 80%
inhibition of growth at 20 ppm [2, 4]: ≥ 80%

FC(F)(F)c1nc(-c2ccc(Cn3ccnc3-c3ccccc3)cc2)no1 [Compound 1.47, 3-[4-[(2-phenylimidazol-1-yl)methyl]phenyl]-5-(trifluoromethyl)-1,2,4-oxadiazole]
pest or weed control at 200 ppm [1, 3]: ≥ 80%
inhibition of growth at 20 ppm [2, 4]: ≥ 80%

FC(F)(F)c1nc(-c2ccc(Cn3c(C(F)(F)F)nc4ccccc43)cc2)no1 [Compound 1.48, 5-(trifluoromethyl)-3-[4-[[2-(trifluoromethyl)benzimidazol-1-yl]methyl]phenyl]-1,2,4-oxadiazole]
pest or weed control at 200 ppm [1, 3]: ≥ 80%
inhibition of growth at 20 ppm [2, 4]: ≥ 80%

CC(=O)c1cn(Cc2ccc(-c3noc(C(F)(F)F)n3)cc2)c2ccccc12 [Compound 1.50, 1-[1-[[4-[5-(trifluoromethyl)-1,2,4-oxadiazol-3-yl]phenyl]methyl]indol-3-yl]ethanone]
pest or weed control at 200 ppm [1]: ≥ 80%
inhibition of growth at 20 ppm [2]: ≥ 80%

Cc1ccc2c(ccn2Cc2ccc(-c3noc(C(F)(F)F)n3)cc2)c1 [Compound 1.52, 3-[4-[(5-methylindol-1-yl)methyl]phenyl]-5-(trifluoromethyl)-1,2,4-oxadiazole]
pest or weed control at 200 ppm [1, 3]: ≥ 80%
inhibition of growth at 20 ppm [2, 4]: ≥ 80%

Cc1nccn1Cc1ccc(-c2noc(C(F)(F)F)n2)cc1 [Compound 1.53, 3-[4-[(2-methylimidazol-1-yl)methyl]phenyl]-5-(trifluoromethyl)-1,2,4-oxadiazole]
pest or weed control at 200 ppm [1, 3]: ≥ 80%

COc1ccc2c(c1)c(C=O)cn2Cc1ccc(-c2noc(C(F)(F)F)n2)cc1 [Compound 1.57, 5-methoxy-1-[[4-[5-(trifluoromethyl)-1,2,4-oxadiazol-3-yl]phenyl]methyl]indole-3-carbaldehyde]
pest or weed control at 200 ppm [1, 3]: ≥ 80%
inhibition of growth at 20 ppm [2, 4]: ≥ 80%

N#CCc1nc2ccccc2n1Cc1ccc(-c2noc(C(F)(F)F)n2)cc1 [Compound 1.58, 2-[1-[[4-[5-(trifluoromethyl)-1,2,4-oxadiazol-3-yl]phenyl]methyl]benzimidazol-2-yl]acetonitrile]
pest or weed control at 200 ppm [1, 3]: ≥ 80%
inhibition of growth at 20 ppm [2, 4]: ≥ 80%

N#Cc1ccn(Cc2ccc(-c3noc(C(F)(F)F)n3)cc2)c1 [Compound 1.60, 1-[[4-[5-(trifluoromethyl)-1,2,4-oxadiazol-3-yl]phenyl]methyl]pyrrole-3-carbonitrile]
pest or weed control at 200 ppm [1, 3]: ≥ 80%
inhibition of growth at 20 ppm [2, 4]: ≥ 80%

CCc1nc2ccccc2n1Cc1ccc(-c2noc(C(F)(F)F)n2)cc1 [Compound 1.63, 3-[4-[(2-ethylbenzimidazol-1-yl)methyl]phenyl]-5-(trifluoromethyl)-1,2,4-oxadiazole]
pest or weed control at 200 ppm [1, 3]: ≥ 80%
inhibition of growth at 20 ppm [2, 4]: ≥ 80%

Fc1ccc(-c2nccn2Cc2ccc(-c3noc(C(F)(F)F)n3)cc2)cc1 [Compound 1.65, 3-[4-[[2-(4-fluorophenyl)imidazol-1-yl)methyl]phenyl]-5-(trifluoromethyl)-1,2,4-oxadiazole]
pest or weed control at 200 ppm [1, 3]: ≥ 80%
inhibition of growth at 20 ppm [2, 4]: ≥ 80%

FC(F)(F)c1nc(-c2ccc(Cn3c(-c4ccncc4)nc4ccccc43)cc2)no1 [Compound 1.73, 3-[4-[[2-(4-pyridyl)benzimidazol-1-yl]methyl]phenyl]-5-(trifluoromethyl)-1,2,4-oxadiazole]
pest or weed control at 200 ppm [1, 3]: ≥ 80%
inhibition of growth at 20 ppm [2, 4]: ≥ 80%

O=C1CCc2cn(Cc3ccc(-c4noc(C(F)(F)F)n4)cc3)cc21 [Compound 1.74, 2-[[4-[5-(trifluoromethyl)-1,2,4-oxadiazol-3-yl]phenyl]methyl]-5,6-dihydrocyclopenta[c]pyrrol-4-one]
pest or weed control at 200 ppm [1, 3]: ≥ 80%
inhibition of growth at 20 ppm [2, 4]: ≥ 80%

COc1ccc2c(ccn2Cc2ccc(-c3noc(C(F)(F)F)n3)cc2)c1 [Compound 1.75, 3-[4-[(5-methoxyindol-1-yl)methyl]phenyl]-5-(trifluoromethyl)-1,2,4-oxadiazole]
pest or weed control at 200 ppm [1, 3]: ≥ 80%
inhibition of growth at 20 ppm [2, 4]: ≥ 80%

FC(F)(F)c1nc(-c2ccc(Cn3cnc4c(Cl)cccc43)cc2)no1 [Compound 1.94, 3-[4-[(4-chlorobenzimidazol-1-yl)methyl]phenyl]-5-(trifluoromethyl)-1,2,4-oxadiazole]
pest or weed control at 200 ppm [1, 3]: ≥ 80%
inhibition of growth at 20 ppm [2, 4]: ≥ 80%

FC(F)(F)c1nc(-c2ccc(Cn3cnc4cccc(Cl)c43)cc2)no1 [Compound 1.95, 3-[4-[(7-chlorobenzimidazol-1-yl)methyl]phenyl]-5-(trifluoromethyl)-1,2,4-oxadiazole]
pest or weed control at 200 ppm [1, 3]: ≥ 80%
inhibition of growth at 20 ppm [2, 4]: ≥ 80%

Cc1cn(Cc2ccc(-c3noc(C(F)(F)F)n3)cc2Cl)c(C)n1 [Compound 1.105, 3-[3-chloro-4-[(2,4-dimethylimidazol-1-yl)methyl]phenyl]-5-(trifluoromethyl)-1,2,4-oxadiazole]
pest or weed control at 200 ppm [1, 3]: ≥ 80%

FC(F)(F)c1nc(-c2ccc(Cn3cnc(Br)c3)c(Cl)c2)no1 [Compound 1.107, 3-[4-[(4-bromoimidazol-1-yl)methyl]-3-chloro-phenyl]-5-(trifluoromethyl)-1,2,4-oxadiazole]
pest or weed control at 200 ppm [1, 3]: ≥ 80%
inhibition of growth at 20 ppm [2, 4]: ≥ 80%

COC(=O)c1ncn(Cc2ccc(-c3noc(C(F)(F)F)n3)cc2Cl)n1 [Compound 1.108, methyl 1-[[2-chloro-4-[5-(trifluoromethyl)-1,2,4-oxadiazol-3-yl]phenyl]methyl]-1,2,4-triazole-3-carboxylate]
pest or weed control at 200 ppm [1, 3]: ≥ 80%
inhibition of growth at 20 ppm [2, 4]: ≥ 80%

Cc1cn(Cc2ccc(-c3noc(C(F)(F)F)n3)cc2Cl)cn1 [Compound 1.109, 3-[3-chloro-4-[(4-methylimidazol-1-yl)methyl]phenyl]-5-(trifluoromethyl)-1,2,4-oxadiazole]
pest or weed control at 200 ppm [1, 3]: ≥ 80%
inhibition of growth at 20 ppm [2, 4]: ≥ 80%

FC(F)(F)c1nc(-c2ccc(Cn3ccnc3)c(Cl)c2)no1 [Compound 1.112, 3-[3-chloro-4-(imidazol-1-ylmethyl)phenyl]-5-(trifluoromethyl)-1,2,4-oxadiazole]
pest or weed control at 200 ppm [1, 3]: ≥ 80%
inhibition of growth at 20 ppm [2, 4]: ≥ 80%

COC(=O)c1ncn(Cc2ccc(-c3noc(C(F)(F)F)n3)cc2F)n1 [Compound 1.122, methyl 1-[[2-fluoro-4-[5-(trifluoromethyl)-1,2,4-oxadiazol-3-yl]phenyl]methyl]-1,2,4-triazole-3-carboxylate]
pest or weed control at 200 ppm [1, 3]: ≥ 80%
inhibition of growth at 20 ppm [2, 4]: ≥ 80%

Fc1cc(-c2noc(C(F)(F)F)n2)ccc1Cn1cccc2ccnc1-2 [Compound 1.125, 3-[3-fluoro-4-(pyrrolo[2,3-b]pyridin-7-ylmethyl)phenyl]-5-(trifluoromethyl)-1,2,4-oxadiazole]
pest or weed control at 200 ppm [1, 3]: ≥ 80%

Fc1cc(-c2noc(C(F)(F)F)n2)ccc1Cn1cnc2ccccc21 [Compound 1.126, 3-[4-(benzimidazol-1-ylmethyl)-3-fluoro-phenyl]-5-(trifluoromethyl)-1,2,4-oxadiazole]
pest or weed control at 200 ppm [1, 3]: ≥ 80%
inhibition of growth at 20 ppm [2, 4]: ≥ 80%

Cc1nccn1Cc1ccc(-c2noc(C(F)(F)F)n2)cn1 [Compound 1.139, 3-[6-[(2-methylimidazol-1-yl)methyl]-3-pyridyl]-5-(trifluoromethyl)-1,2,4-oxadiazole]
pest or weed control at 200 ppm [1, 3]: ≥ 80%

O=C(NCC1CC1)c1cnn(Cc2ccc(-c3noc(C(F)(F)F)n3)cc2)c1 [Compound 1.249, N-(cyclopropylmethyl)-1-[[4-[5-(trifluoromethyl)-1,2,4-oxadiazol-3-yl]phenyl]methyl]pyrazole-4-carboxamide]
pest or weed control at 200 ppm [1, 3]: ≥ 80%
inhibition of growth at 20 ppm [2, 4]: ≥ 80%

FC(F)(F)c1nc(-c2ccc(CN3CCOCC3)cc2)no1 [Compound 1.301, 4-[[4-[5-(trifluoromethyl)-1,2,4-oxadiazol-3-yl]phenyl]methyl]morpholine]
pest or weed control at 200 ppm [1, 3]: ≥ 80%

C[C@@H]1CN(Cc2ccc(-c3noc(C(F)(F)F)n3)cc2)C[C@@H](C)O1 [Compound 1.308, (2R,6R)-2,6-dimethyl-4-[[4-[5-(trifluoromethyl)-1,2,4-oxadiazol-3-yl]phenyl]methyl]morpholine]
pest or weed control at 200 ppm [1, 3]: ≥ 80%
